Experimental data from patent US20230017712A1, “SUSTAINED RELEASE DRUG DELIVERY DEVICE” (OAK CREST INSTITUTE OF SCIENCE, priority 2019, published 2023).
Like-named read-outs stand apart in the source and are kept apart here.

Columns and labels:
HIV [1] = conditions: from non-human primate efficacy studies; cited from earlier work
[2] = 600 mg every 8 weeks, intramuscular; cited from earlier work
[3] = TAF powder, no excipients, PBS, 37° C.
Description: Segments (25 mm long) of the ePTFE tubes listed in TABLE 1 were cut, and approximately 3 mm of each end of the tube were prepared for sealing using FluoroEtch primer (Action Technologies, Pittston, Pa.) according to manufactures instructions. The tubes were then filled with tenofovir alafenamide (TAF) powder. No other excipients were used. The mass of TAF per implant varied between 20 and 70 mg depending on the experiment. The filled implants were sealed at both ends by placing a drop of Permabond 105 cyanoacrylate adhesive (Permabond Engineering Adhesives, Pottstown, Pa., USA) inside each end of the tube and crimping the end closed for 30 sec to allow the adhesive to cure and form a tight seal. Implants were kept at room temperature (ca. 23° C.) for 24 hours to allow the adhesive bond to reach full strength. The TAF in vitro release kinetics from the loaded implants was investigated by immersing the device in a solution consisting of phosphate buffered saline (PBS, 1×, 100 mL) containing sodium azide (0.01% w/v) at 37° C. with orbital shaking at 125 RPM for 30 days. The concentration of TAF in the release media was measured by UV-vis absorption spectroscopy (λmax 262 nm).

[4] = monoolein (MYVEROL 18-92K) paste, FIG. 30B
Description: (§1) In vitro release studies were carried out in 100 mL of release media (0.1% solutol HS 15 in 1×PBS) at 37° C. in an orbital shaking incubator at 125 RPM. Media was changed as required to keep TAF concentration at least 50-fold below saturation to maintain sink conditions.

[5] = paste 50% TAF / 50% PEG 400
Description: as §1, with “Implants were fabricated using an ePTFE tubing skin (40 mm length, 2.0 mm I.D., 0.18 mm wall thickness) and a paste kernel composed of 50% TAF and 50% PEG 400 (w/w); the tube ends were sealed. In” for “In”

[6] = kernel 70% TAF / 30% triethyl citrate
Description: For both implant types, kernels consisted of 70% TAF and 30% triethyl citrate (w/w). Skins used custom tube extrusions of polyurethane [Pellethane® 2363-55DE (Lubrizol, Inc.); 25 mm length, 2.2 mm I.D., 0.13 mm wall thickness] and silicone [MED-4765 (Nusil, Inc.); 25 mm length, 2.1 mm I.D., 0.13 mm wall thickness]. The implant ends were sealed with MEDS-4213 (Nusil, Inc.) silicone adhesive. In vitro release studies were carried out in 100 mL of release media (0.5% solutol HS 15 in 1×PBS) at 37° C. in an orbital shaking incubator at 125 RPM. Media was changed as required to keep TAF concentration at least 50-fold below saturation to maintain sink conditions.

[7] = Description: The concentration of TAF in the release media was measured by UV-vis absorption spectroscopy (λmax 262 nm).
Remark: listed apart in the source
HIV [8] = conditions: target 50 fmol TFV-DP per million PBMCs; cited from earlier work
HIV [9] = conditions: cited from earlier work

SMILES | steady state plasma concentration target, four times the protein adjusted IC90 (PA-IC90) (HIV [1]) | participants with trough concentrations above 1× PA-IC90 [2] | participants with trough concentrations above 4× PA-IC90 [2] | daily release rate (slope of linear regression, best fit value±SE) ([3]; ePTFE tube density 0.34 g cm^−3) | daily release rate (slope of linear regression, best fit value±SE) ([3]; ePTFE tube density 0.47 g cm^−3) | daily release rate (slope of linear regression, best fit value±SE) ([3]; ePTFE tube density 0.84 g cm^−3) | daily release rate (slope of linear regression, best fit value±SE) ([3]; ePTFE tube density 1.13 g cm^−3) | effect of monoolein paste on release kinetics through ePTFE tubes relative to other hydrophobic oils [4] | TAF release rate ([5]; ePTFE density 0.47 g cm^−3) | TAF release rate ([5]; ePTFE density 0.84 g cm^−3) | release rate, linear fit days 20-160 ([6]; polyurethane skin (Pellethane 2363-55DE)) | release rate, linear fit days 20-160 ([6]; silicone skin (MED-4765)) | release behaviour of coated sponges ([7]; PDMS sponges coated with DL-PLA, L-PLA or PCL) | time for drug release from TAF-impregnated sponges ([7]; no polymer coating applied) | TAF delivered linearly over 80 days (blended with PEG 400) | TAF delivered from the implants over the first month (blended with TEC) | TAF delivered in less than the first day (blended with TEC) | slope (release rate), simple linear regression (paste TAF 77% w/w with PEG 400 23% w/w, ePTFE 0.84 g cm^−3, 40 mm implant) | linear subcutaneous release rate leading to protective TFV-DP PBMC concentrations (HIV [8]) | release rate that could be protective (HIV [9])
C[C@H]1CO[C@@H]2Cn3cc(C(=O)NCc4ccc(F)cc4F)c(=O)c(O)c3C(=O)N12 [CAB, Cabotegravir] | 0.66 mg/L | ≥ 95% | ≥ 80% |  |  |  |  |  |  |  |  |  |  |  |  |  |  |  |  | 
CC(C)OC(=O)[C@H](C)N[P@](=O)(CO[C@H](C)Cn1cnc2c(N)ncnc21)Oc1ccccc1 [TAF, Tenofovir alafenamide] |  |  |  | 1.22 ± 0.023 mg/day | 0.40 ± 0.0087 mg/day | 0.58 ± 0.0089 mg/day | 0.12 ± 0.0037 mg/day | increasing the rate of drug release | 0.51 mg/day | 0.065 mg/day | 0.079 mg/day | 0.035 mg/day | controlled and tuned over 15 d | under 1 d | ca. 5 mg | 60 mg | 5 mg | 54.4 µg/day | 0.5 mg/day | ca. 0.3 mg d^−1
